Test system: mouth (panel of three flavorists)
Assay: Sensory evaluation of cooling strength by a panel of three flavorists
Assay type: in vivo
Conditions: for Cooling strength score of reference standards: reference standards on the scale of 1 to 10, 10 being the strongest
Description: The sensory properties of crystalline MLL and liquid products that contain MLL (from Examples 1-5, above) are evaluated by a panel of three flavorists. The standard method involves holding an aqueous solution containing 20 ppm of coolant in the mouth for 30 seconds, then spitting it out and observing and quantifying the cooling effect when compared with a set of reference standards. Based on their cooling strength, the samples are scored on a scale of 1 to 10, with 10 being the strongest. Samples used as reference standards are to monomenthyl glutarate (3.5 on this scale), l-menthyl lactate (4.5) and N-ethyl-3-p-menthane carboxamide, i.e., WS-3 (10). Several coolant “cocktails,” i.e., liquid coolant-mixtures, are prepared, and their sensory properties are evaluated as in Example 6. The compositions and results appear in Table 2.

Compound	Score (cooling strength) (aqueous solution containing 20 ppm of coolant held in the mouth for 30 seconds, scale of 1 to 10, 10 being the strongest, Table 1)	Cooling strength compared with reference coolants (in words) (sensory evaluation)	Cooling strength score of reference standards
CC(C)[C@@H]1CC[C@@H](C)C[C@H]1OC(=O)[C@H](C)OC(=O)[C@H](C)O [Example 6, l-menthyl L-lactoyl-L-lactate]	4.0	intermediate between that of l-menthyl lactate and monomenthyl glutarate	
CCNC(=O)C1CC(C)CCC1C(C)C (centres unmarked) [WS-3, N-ethyl-3-p-menthane carboxamide]			10
CC(C)[C@@H]1CC[C@@H](C)C[C@H]1OC(=O)[C@H](C)O [l-menthyl lactate]			4.5
CC(C)[C@@H]1CC[C@@H](C)C[C@H]1OC(=O)CCCC(=O)O [monomenthyl glutarate]			3.5
